Measured values reported in ChEMBL document CHEMBL1201862, “PubChem BioAssay data set” (2004).
Activity calls are given as the source filed them. Rule as the data show it, for most assays here: actives have a measured EC50 and inactives only a lower limit.

Legend:
Ephrin type-A receptor 4 = Ephrin type-A receptor 4 (Mus musculus, UniProt Q03137); assay: EphA4 ligand-binding antagonists – biochemical, colorimetric, mouse EphA4, primary screen (AID 689); format: functional
[1] = M. tuberculosis H37Rv growth inhibitors, H37Rv strain (AID 1626); format: functional
[2] = biological target: Melanin-concentrating hormone receptor 1 (Homo sapiens, UniProt Q99705); assay: Fluorescence-based counterscreen for antagonists of the G-protein coupled receptor 7 (GPR7): cell-based high throughput dose response assay to identify antagonists of the melanin-concentrating hormone receptor 1 (MCHR1).; format: functional
Melanin-concentrating hormone receptor 1, sequence (Q99705 whole entry): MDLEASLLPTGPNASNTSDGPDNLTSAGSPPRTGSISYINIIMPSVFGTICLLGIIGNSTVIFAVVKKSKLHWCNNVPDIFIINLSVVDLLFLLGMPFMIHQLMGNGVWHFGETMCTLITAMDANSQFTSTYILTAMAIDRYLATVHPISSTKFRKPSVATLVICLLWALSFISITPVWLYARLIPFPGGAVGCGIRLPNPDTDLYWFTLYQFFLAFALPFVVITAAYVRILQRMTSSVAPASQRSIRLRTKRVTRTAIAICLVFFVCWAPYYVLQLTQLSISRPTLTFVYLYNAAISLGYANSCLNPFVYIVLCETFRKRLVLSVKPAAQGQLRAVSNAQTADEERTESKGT

[3] = biological target: T1, Neuropeptides B/W receptor type 1 (Homo sapiens, UniProt P48145); assay: Fluorescence-based dose response cell-based high throughput screening assay to identify antagonists of the G-protein coupled receptor 7 (GPR7). [Related pubchem assays: 1952 (Screening assay (GPR7 antagonists).), 1880 (Summary AID.)]; format: functional
T1 sequence (P48145 whole entry): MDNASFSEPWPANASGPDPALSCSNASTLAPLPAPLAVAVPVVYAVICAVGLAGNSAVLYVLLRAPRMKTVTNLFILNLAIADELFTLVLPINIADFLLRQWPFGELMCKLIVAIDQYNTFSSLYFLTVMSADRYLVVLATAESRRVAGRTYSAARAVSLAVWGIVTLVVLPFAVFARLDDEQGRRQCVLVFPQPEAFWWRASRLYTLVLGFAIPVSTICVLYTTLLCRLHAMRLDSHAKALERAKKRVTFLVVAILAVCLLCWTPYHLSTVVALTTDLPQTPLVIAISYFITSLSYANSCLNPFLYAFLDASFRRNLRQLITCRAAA

[4] = Luminescence Cell-Based Dose Confirmation HTS to Identify Inhibitors of Polyadenylation.; format: functional
Streptococcus = assay: GAS UMAA2166 growth inhibition – luminescence, BacTiterGlo, counter-screen for streptokinase expression inhibitor project, dose response (AID 1915); format: functional, organism-based;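 also: potency for reduction of bacterial viability or growth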
Streptokinase A = biological target: T2, Streptokinase A (Streptococcus pyogenes serotype M1, UniProt P10520); assay: viability-normalized secreted streptokinase activity reduction – plasminogen activation absorbance, OD405, dose response (AID 1914); format: functional, Streptococcus pyogenes M1 GAS;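 also: secreted streptokinase activity via plasminogen activation per viability signal from cell pellet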
T2 sequence (P10520 whole entry): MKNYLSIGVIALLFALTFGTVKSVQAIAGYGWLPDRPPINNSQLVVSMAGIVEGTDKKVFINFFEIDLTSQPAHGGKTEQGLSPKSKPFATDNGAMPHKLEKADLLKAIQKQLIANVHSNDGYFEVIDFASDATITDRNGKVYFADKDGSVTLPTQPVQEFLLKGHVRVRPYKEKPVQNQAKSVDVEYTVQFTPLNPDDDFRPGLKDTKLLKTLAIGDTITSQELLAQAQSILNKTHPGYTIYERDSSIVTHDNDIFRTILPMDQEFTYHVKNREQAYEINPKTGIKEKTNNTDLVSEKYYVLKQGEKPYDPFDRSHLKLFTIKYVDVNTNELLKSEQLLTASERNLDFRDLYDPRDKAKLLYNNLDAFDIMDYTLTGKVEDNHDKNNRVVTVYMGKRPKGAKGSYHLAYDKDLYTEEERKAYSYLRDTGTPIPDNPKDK

[5] = test system: Streptococcus sp. 'group A'; assay: Streptococcus pyogenes SK(-)GAS viability under kanamycin – luminescence, BacTiterGlo, confirmation, counter-screen for streptokinase expression inhibitor project, dose response (AID 1900); format: functional, organism-based
BJ [6] = assay: cells; format: functional, cell-based; conditions: Homo sapiens
[7] = DRD fibroblast viability loss – cell-based, non-viral oncogenic, luminescence, dose response (AID 1934); format: functional; conditions: Homo sapiens
H4 = assay: Luminescence Cell-Based Dose Response HTS to Identify Activators of 5'UTR Stem-Loop Driven Prion Protein mRNA Translation in H4 Neuroglioblastoma Cells. [Related pubchem assays: 1829 (Project Summary), 1814 (Primary HTS)]; format: functional; conditions: Homo sapiens
[8] = Luminescence Cell-Based Dose Response HTS to Identify Activators of Luciferase Translation or Activity in H4 […] Cells. [Related pubchem assays: 1829 (Project Summary), 1814 (Primary HTS)]; format: functional
BJ [9] = assay: BJ-TERT fibroblast viability loss – cell-based, RAS-independent, luminescence, dose response (AID 1933); format: functional; conditions: Homo sapiens
[10] = Luminescence Cell-Based Dose Confirmation HTS to Identify Activators of 5'UTR Stem-Loop Driven Alpha-Synuclein mRNA Translation in H4 Neuroglioblastoma Cells. [Related pubchem assays: 1829 (Project Summary), 1814 (Primary HTS)]; format: functional
[11] = Luminescence Cell-Based Dose Confirmation to Identify Activators of 5'UTR Stem-Loop Driven Alpha-Synuclein mRNA Translation in H4 Neuroglioblastoma Cells. [Related pubchem assays: 1829 (Project Summary), 1814 (Primary HTS)]; format: functional
[12] = Luminescence Cell-Based Dose Response to Identify Activators of 5'UTR Stem-Loop Driven Prion Protein mRNA Translation in H4-C Neuroglioblastoma Cells. [Related pubchem assays: 1829 (Project Summary), 1814 (Primary HTS)]; format: functional
BJ [13] = assay: BJ-TERT-LT-ST fibroblast viability loss – cell-based, RAS-independent, luminescence, dose response (AID 1935); format: functional; conditions: Homo sapiens;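 also: BJ fibroblasts immortalized with TERT plus LT and ST oncogenes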
[14] = Luminescence Cell-Based Dose Response to Identify Activators of Luciferase Translation or Activity in H4-C Neuroglioblastoma Cells. [Related pubchem assays: 1829 (Project Summary), 1814 (Primary HTS)]; format: functional
[15] = biological target: Protein-tyrosine kinase 2-beta (Homo sapiens, UniProt Q14289);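 also: potency of inhibitors of PYK2 kinase phosphorylation of poly-GT substrate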
Protein-tyrosine kinase 2-beta, sequence (Q14289 whole entry): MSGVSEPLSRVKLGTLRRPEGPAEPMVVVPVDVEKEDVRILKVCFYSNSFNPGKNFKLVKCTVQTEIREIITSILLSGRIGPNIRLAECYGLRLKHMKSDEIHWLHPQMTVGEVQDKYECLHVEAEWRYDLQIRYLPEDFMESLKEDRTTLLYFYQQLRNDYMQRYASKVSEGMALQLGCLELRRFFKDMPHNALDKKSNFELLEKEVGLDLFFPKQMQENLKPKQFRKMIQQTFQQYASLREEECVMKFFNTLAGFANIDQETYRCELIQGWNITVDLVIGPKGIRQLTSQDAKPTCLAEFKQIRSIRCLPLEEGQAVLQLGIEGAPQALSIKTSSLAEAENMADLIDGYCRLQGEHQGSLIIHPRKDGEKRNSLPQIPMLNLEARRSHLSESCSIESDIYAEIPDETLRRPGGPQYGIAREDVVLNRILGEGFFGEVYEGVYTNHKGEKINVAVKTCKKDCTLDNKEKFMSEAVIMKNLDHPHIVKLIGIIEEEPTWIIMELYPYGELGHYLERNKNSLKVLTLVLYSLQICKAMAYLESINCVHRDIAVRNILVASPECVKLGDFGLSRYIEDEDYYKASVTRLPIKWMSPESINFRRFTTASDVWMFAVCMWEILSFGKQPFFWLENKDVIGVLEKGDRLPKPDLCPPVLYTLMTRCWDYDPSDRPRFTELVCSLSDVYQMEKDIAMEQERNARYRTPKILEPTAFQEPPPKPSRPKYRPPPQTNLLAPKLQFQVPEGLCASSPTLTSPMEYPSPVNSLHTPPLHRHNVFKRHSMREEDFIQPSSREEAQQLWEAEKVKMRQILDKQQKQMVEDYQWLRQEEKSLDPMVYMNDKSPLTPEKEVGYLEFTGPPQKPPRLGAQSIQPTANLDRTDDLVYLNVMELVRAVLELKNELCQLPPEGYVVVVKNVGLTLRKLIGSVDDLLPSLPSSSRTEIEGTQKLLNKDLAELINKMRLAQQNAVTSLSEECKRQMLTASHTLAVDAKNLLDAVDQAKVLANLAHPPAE

[16] = biological target: T3, Rac GTPase-activating protein 1 (Homo sapiens, UniProt Q9H0H5); assay: blockers of MgcRacGAP-driven Rac1 GTP hydrolysis – biochemical, ADP Hunter fluorescence, primary and confirmatory, confirmation (AID 624330); format: functional
T3 sequence (Q9H0H5 whole entry): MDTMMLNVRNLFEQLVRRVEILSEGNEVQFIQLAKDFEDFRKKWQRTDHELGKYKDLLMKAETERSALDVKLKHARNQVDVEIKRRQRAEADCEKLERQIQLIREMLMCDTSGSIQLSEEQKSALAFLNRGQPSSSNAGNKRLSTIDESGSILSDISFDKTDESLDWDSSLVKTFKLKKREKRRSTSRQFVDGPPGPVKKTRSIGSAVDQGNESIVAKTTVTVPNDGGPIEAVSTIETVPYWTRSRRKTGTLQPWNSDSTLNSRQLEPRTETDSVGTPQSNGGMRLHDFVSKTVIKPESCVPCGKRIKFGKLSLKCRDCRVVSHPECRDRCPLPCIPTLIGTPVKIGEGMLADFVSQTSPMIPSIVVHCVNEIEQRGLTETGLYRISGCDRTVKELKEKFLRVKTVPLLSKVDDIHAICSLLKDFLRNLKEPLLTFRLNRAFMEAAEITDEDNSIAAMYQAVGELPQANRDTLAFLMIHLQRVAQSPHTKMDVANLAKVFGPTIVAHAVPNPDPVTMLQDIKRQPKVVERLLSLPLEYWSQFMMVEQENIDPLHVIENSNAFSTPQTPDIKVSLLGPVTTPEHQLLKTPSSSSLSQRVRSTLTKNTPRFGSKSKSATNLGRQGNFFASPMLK

[17] = biological target: T4, Sentrin-specific protease 8 (Homo sapiens, UniProt Q96LD8); format: functional
T4 sequence (Q96LD8 whole entry): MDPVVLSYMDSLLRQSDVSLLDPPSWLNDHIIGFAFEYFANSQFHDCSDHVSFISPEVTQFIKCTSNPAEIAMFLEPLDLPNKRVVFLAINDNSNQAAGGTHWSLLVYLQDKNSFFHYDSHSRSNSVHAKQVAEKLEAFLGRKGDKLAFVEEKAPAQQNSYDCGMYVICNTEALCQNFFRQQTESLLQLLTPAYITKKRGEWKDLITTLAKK

Large T antigen = Large T antigen (Simian virus 40, UniProt P03070); format: functional, Betapolyomavirus macacae;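 also: Confirmatory-stage PubChem screen for compounds that inhibit SV40 T antigen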
Large T antigen, sequence (P03070 whole entry): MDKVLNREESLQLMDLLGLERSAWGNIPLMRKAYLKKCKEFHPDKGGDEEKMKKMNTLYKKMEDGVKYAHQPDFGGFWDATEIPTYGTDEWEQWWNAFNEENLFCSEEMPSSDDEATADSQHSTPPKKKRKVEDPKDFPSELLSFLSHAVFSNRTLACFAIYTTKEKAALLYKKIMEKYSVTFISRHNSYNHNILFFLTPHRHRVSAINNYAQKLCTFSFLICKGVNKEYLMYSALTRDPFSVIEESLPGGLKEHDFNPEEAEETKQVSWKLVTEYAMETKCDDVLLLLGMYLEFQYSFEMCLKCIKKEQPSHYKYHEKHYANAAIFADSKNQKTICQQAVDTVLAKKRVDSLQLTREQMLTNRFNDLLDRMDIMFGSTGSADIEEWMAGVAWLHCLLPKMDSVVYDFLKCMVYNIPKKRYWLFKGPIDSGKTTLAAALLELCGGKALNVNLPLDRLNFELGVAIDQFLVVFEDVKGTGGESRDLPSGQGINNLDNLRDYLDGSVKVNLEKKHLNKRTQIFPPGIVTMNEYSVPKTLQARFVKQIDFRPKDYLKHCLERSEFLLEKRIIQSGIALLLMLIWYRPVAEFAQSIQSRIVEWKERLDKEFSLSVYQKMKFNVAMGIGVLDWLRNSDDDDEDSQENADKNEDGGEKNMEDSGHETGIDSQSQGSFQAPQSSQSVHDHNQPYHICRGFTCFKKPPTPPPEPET

Estrogen receptor beta [18] = biological target: T5, Estrogen receptor beta (Homo sapiens, UniProt Q92731); assay: blockers of SRC-3 recruitment to ERβ – biochemical, ELISA, streptavidin-HRP readout, orthogonal assay, confirmation (AID 1060)
T5 sequence (Q92731 whole entry): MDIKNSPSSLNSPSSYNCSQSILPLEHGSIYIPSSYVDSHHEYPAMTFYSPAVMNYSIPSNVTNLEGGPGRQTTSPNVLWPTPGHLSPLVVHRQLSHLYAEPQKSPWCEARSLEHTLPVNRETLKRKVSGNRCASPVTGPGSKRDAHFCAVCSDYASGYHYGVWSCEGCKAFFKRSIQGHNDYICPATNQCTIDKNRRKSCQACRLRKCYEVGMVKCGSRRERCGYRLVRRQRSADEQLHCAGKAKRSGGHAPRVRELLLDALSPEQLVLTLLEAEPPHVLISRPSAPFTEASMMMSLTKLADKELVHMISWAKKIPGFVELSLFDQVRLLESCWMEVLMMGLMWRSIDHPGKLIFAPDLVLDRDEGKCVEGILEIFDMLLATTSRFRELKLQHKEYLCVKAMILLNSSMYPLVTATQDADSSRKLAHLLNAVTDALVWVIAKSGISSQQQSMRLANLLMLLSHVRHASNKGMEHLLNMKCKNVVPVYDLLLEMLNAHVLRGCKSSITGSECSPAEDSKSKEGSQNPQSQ

[19] = biological target: T4, Sentrin-specific protease 8; format: functional; remark: listed apart in the source
Estrogen receptor beta [20] = biological target: T5, Estrogen receptor beta
[21] = NIH3T3 cell viability loss – ATP luminescence, mouse fibroblasts, counter-screen, dose response (AID 2010); format: functional, cell-based;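 also: cells exposed to compound for about 90 hours before reading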
[22] = Trypanosoma cruzi growth suppression in host cells – NIH3T3 host cells, beta-gal luminescence, confirmation (AID 2044); format: functional, cell-based;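 also: intracellular parasites grown in NIH/3T3 mouse fibroblasts as host cells; luminescent beta-galactosidase reporter signal from transgenic T. cruzi replicating inside host cells; inhibitors lower the luminescence signal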
[23] = biological target: T6, Histone-lysine N-methyltransferase NSD2 (Homo sapiens, UniProt O96028); format: biochemical
T6 sequence (O96028 whole entry): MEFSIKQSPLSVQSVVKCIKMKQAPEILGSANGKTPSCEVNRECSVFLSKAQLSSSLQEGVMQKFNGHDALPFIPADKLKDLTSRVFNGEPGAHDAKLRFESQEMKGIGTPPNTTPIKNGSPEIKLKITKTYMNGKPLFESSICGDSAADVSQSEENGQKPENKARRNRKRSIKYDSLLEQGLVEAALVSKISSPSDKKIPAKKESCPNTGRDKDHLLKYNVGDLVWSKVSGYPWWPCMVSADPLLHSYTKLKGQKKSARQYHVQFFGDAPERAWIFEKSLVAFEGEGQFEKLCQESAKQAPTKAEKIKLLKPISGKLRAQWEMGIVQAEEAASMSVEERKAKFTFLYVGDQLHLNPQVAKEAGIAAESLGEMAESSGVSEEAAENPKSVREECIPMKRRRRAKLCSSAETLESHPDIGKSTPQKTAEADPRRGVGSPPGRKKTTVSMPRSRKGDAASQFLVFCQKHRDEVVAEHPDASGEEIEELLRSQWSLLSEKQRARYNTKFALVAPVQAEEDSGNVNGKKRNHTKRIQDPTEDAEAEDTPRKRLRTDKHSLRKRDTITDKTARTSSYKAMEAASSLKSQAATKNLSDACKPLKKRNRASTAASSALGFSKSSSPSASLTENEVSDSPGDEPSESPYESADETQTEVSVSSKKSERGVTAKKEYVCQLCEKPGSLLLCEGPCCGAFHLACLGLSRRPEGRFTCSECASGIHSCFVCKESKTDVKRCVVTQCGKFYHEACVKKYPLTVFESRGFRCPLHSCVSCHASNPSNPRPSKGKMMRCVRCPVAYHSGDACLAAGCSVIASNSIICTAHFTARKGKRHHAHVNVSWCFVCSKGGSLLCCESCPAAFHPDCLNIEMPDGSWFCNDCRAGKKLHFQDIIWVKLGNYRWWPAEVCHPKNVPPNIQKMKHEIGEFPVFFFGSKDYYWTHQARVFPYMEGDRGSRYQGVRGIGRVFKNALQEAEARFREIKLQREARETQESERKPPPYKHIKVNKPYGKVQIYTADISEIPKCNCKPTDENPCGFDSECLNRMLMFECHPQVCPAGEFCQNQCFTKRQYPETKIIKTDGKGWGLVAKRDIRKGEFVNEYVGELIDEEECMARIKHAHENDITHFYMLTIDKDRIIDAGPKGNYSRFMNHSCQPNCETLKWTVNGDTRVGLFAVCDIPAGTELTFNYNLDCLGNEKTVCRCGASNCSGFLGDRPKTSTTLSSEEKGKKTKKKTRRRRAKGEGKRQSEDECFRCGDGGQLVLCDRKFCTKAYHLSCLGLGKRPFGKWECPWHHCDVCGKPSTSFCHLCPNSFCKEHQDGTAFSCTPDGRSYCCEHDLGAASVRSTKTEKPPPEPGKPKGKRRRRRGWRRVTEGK

Genome polyprotein = Genome polyprotein (dengue virus type 2, UniProt P29990); assay: flavivirus cap methylation enzyme inhibition – biochemical, confirmation dose response, primary screen (AID 588689); format: functional
Genome polyprotein, sequence (P29990 2492-3391 limits assumed): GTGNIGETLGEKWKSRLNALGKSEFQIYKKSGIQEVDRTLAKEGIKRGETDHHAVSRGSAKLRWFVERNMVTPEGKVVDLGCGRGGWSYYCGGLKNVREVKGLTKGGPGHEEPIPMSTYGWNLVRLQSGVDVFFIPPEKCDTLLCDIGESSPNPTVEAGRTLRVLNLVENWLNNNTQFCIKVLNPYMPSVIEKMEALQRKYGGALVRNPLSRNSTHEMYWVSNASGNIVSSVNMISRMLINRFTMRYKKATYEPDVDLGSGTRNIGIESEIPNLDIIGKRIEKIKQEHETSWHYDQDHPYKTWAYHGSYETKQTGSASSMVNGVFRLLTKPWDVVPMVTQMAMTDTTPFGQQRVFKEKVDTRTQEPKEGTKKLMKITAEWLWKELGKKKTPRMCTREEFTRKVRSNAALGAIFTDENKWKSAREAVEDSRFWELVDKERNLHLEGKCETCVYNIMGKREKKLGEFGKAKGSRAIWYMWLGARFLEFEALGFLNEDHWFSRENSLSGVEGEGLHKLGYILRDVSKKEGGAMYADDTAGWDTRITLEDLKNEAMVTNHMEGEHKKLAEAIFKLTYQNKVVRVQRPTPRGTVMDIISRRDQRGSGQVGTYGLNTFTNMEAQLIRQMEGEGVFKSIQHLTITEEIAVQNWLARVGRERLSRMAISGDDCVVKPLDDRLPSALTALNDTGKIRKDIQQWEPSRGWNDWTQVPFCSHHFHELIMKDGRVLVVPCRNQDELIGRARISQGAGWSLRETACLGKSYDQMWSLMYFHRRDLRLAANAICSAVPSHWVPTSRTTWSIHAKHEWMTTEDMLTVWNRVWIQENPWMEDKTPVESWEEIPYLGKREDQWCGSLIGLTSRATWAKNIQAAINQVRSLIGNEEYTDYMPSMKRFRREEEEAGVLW

Ephrin type-A receptor 4, sequence (Q03137 whole entry): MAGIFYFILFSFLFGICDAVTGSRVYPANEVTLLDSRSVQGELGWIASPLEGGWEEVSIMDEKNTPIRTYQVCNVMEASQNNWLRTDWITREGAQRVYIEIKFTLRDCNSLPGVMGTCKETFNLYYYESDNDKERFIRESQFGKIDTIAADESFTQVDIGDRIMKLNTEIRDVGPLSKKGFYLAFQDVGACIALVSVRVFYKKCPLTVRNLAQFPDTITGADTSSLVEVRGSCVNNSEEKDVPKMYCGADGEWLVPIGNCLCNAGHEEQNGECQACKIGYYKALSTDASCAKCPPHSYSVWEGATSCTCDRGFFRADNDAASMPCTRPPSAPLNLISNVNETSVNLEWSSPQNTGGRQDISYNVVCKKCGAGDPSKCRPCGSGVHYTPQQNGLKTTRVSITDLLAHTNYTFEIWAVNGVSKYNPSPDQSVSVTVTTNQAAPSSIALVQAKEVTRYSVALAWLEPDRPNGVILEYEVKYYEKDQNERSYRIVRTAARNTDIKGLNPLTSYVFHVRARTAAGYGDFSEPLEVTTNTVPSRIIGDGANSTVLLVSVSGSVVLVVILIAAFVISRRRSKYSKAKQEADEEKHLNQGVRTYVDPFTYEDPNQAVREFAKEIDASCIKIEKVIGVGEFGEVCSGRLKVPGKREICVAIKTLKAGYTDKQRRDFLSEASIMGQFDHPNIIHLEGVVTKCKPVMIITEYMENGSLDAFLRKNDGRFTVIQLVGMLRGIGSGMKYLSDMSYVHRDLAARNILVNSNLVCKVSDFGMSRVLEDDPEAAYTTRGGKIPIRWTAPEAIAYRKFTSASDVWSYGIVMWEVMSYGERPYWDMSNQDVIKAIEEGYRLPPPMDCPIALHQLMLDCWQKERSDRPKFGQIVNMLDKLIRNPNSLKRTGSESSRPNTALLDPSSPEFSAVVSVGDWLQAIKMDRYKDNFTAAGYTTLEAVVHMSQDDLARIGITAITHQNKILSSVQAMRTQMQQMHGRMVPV

Compound: CCn1c(COc2ccccc2C)nnc1SCC(=O)Nc1cc(C)on1
- IC50 (Ephrin type-A receptor 4): > 100 µM (not active)

Compound: O=C(COC(=O)Cc1ccccc1F)Nc1ccc2c(c1)OCO2
- IC50 [1]: > 100 µM (active)

Compound: CCOc1ccc([N+](=O)[O-])cc1CNC1CCCCCCC1
- IC50 [2]: 12.6 µM (not active)
- IC50 [3]: 27.3 µM (not active)

Compound: COc1cc(C(=O)Nc2c(C)cc(C)cc2C)c(Br)c(OC)c1OC
- EC50 [4]: > 120 µM (not active)

Compound: COc1ccc(OCCn2c(NC(=O)c3ccco3)nc3ccccc32)cc1
- EC50 (Streptococcus): > 150 µM (not active)
- EC50 (Streptokinase A): > 150 µM (not active)
- EC50 [5]: 5.47 µM (active)
- IC50 [1]: > 100 µM (active)

Compound: N#CC1=C(SCC(=O)c2ccccc2)N=C2CCCC(O)=C2C1c1ccco1 (configuration not stated)
- EC50 (BJ [6]): 42.1 µM (inconclusive)
- EC50 [7]: 19.3 µM (inconclusive)
- EC50 (H4): > 120 µM (not active)
- EC50 [8]: < 0.1 µM (active)
- EC50 (BJ [9]): 2.85 µM (active)
- EC50 [10]: > 120 µM (not active)
- EC50 [11]: 0.464 µM (active)
- EC50 [12]: 1.22 µM (active)
- EC50 (BJ [13]): 18.9 µM (active)
- EC50 [14]: 0.395 µM (active)

Compound: O=C1Nc2ccc(NS(=O)(=O)c3cccs3)c3cccc1c23
- IC50 [15]: 5.32 µM (active)

Compound: Cc1nc2ccc(NC(=O)C(F)(F)F)cc2o1
- IC50 [1]: > 100 µM (active)

Compound: O=C(Nc1ccc(O)cc1)C1CC=CCC1 (configuration not stated)
- IC50 [16]: 40.7 µM (active)
- IC50 [17]: 25.1 µM (active)
- IC50 (Large T antigen): 16.4 µM (active)
- IC50 (Estrogen receptor beta [18]): 0.124 µM (not active)
- IC50 [19]: 19.1 µM (active)
- IC50 (Estrogen receptor beta [20]): 3.2 µM (active)

Compound: O=C(O)c1cccc(NC2=C(Cl)C(=O)c3ccccc3C2=O)c1
- EC50 (H4): 6.76 µM (active)
- EC50 [8]: < 0.1 µM (active)
- EC50 [21]: 5.21 µM (active)
- EC50 [10]: 1.44 µM (active)
- EC50 [11]: > 12 µM (not active)
- EC50 [12]: > 12 µM (not active)
- EC50 [22]: > 30 µM (not active)
- AC50 [23]: 5.2 µM (active)
- EC50 [14]: 0.149 µM (active)
- IC50 (Genome polyprotein): 15.6 µM (active)
